From ChEMBL document CHEMBL1201862, “PubChem BioAssay data set” (2004)
The source made the active and inactive calls.

Tests used:
[1] = molecular target: Melanin-concentrating hormone receptor 1 (Homo sapiens, UniProt Q99705); assay: Late-stage fluorescence-based counterscreen for antagonists of the G-protein coupled receptor 7 (GPR7): cell-based dose response assay to identify antagonists of the melanin-concentrating hormone receptor 1 (MCHR1). [Related pubchem assays (depositor defined):AID1861, AID1880, AID1952, AID2148, AID2251, AID2257, AID485339]; format: functional;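 also: stimulated with 30 nM MCH peptide agonist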
[2] = inhibitors of SNCA 5'UTR-driven reporter translation, confirmation, H4 neuroglioma cells, luminescence (AID 1988); format: functional, cell-based
HEK293 [3] = assay: NOD1 signaling inhibitors, primary screen, cell-based, luminescence, uHTS (AID 1578); format: functional; details: Homo sapiens
[4] = molecular target: Nucleotide-binding oligomerization domain-containing protein 2 (Homo sapiens, UniProt Q9HC29); assay: NOD2 signaling inhibitors, cell-based, luminescence, uHTS, HEK293 (AID 1566); format: functional
[5] = test system: Streptococcus sp. 'group A'; assay: growth inhibition of control SK(-) GAS strain, dose response, counter-screen for streptokinase expression inhibitor project, luminescence, kanamycin, BacTiterGlo, confirmation (AID 1900); format: functional, organism-based
HEK293 [6] = assay: NOD2 signaling inhibitors in MDP-stimulated cells, cell-based, uHTS, luminescence (AID 2001); format: functional; details: Homo sapiens
[7] = Luminescence Cell-Based Dose Response HTS to Identify Inhibitors of 5'UTR Stem-Loop Driven Prion Protein mRNA Translation in H4 Neuroglioblastoma Cells. [Related pubchem assays: 1827 (Project Summary), 1813 (Primary HTS)]; format: functional
HEK293 [8] = assay: cells; format: functional, cell-based; details: Homo sapiens
HEK293 [9] = assay: cells; format: functional, cell-based; details: Homo sapiens; remark: listed apart in the source
HEK293 [10] = assay: cells; format: functional, cell-based; details: Homo sapiens; remark: listed apart in the source
Streptococcus = assay: Group A Streptococcus viability loss, dose response, counter-screen for streptokinase expression inhibitor project, luminescence, BacTiterGlo (AID 1915); format: functional, organism-based;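 also: potency for reduction of bacterial viability or growth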
[11] = inhibitors of firefly luciferase expression or activity, dose response, H4 neuroglioma cells, luminescence (AID 1990); format: functional, cell-based
[12] = cytotoxicity in HEK-293T cells, dose response, cytotoxicity control for TCR NF-kB inhibitor project, luminescence, T-cell screen hits (AID 489026); format: functional, cell-based;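 also: cells exposed to compound about 14 hours before the viability readout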
[13] = LGR2 antagonists, dose response, cell-based, HEK293, CRE-luciferase reporter, cherry pick, set 2 (AID 743343); format: functional;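 also: transfected cells were stimulated with diluted bursicon conditioned medium after compound addition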
[14] = MC4R antagonists, dose response, counter-screen for LGR2 antagonist project, cell-based, plate reader, cherry pick (AID 743444); format: functional;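 also: transfected HEK 293 cells stimulated with alpha-MSH peptide; potency of inhibitors of the alpha-MSH evoked signal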
[15] = Luminescence-based counterscreen assay for KLF5 inhibitors: dose response cell-based high throughput screening assay to identify cytotoxic compounds using the IEC-6 intestinal epithelial cell line. [Related pubchem assays: 1700 (Primary screen.), 1834 (Confirmation screen.), 1858 (Summary AID.), 1905 (Counterscreen.)]; format: functional
[16] = Shn3 3'UTR reporter inhibitors, dose response, cell-based, Clone20 osteoblasts, firefly luciferase, cherry-picked (AID 624132); format: functional;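 also: firefly luciferase luminescence from reporter carrying the Shn3 3'UTR in osteoblasts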
[17] = molecular target: T1, Heat shock factor protein 1 (Mus musculus, UniProt P38532); assay: inhibition of MG132-induced HSE-luciferase signal, confirmation, cell-based, NIH3T3, luminescence, dose retest (AID 2382); format: functional;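 also: NIH3T3 fibroblasts with HSF1-driven luciferase reporter stressed by proteasome inhibitor MG132; luminescence from HSF1-driven luciferase expression after 8 hours of MG132 stress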
T1 sequence (P38532 whole entry): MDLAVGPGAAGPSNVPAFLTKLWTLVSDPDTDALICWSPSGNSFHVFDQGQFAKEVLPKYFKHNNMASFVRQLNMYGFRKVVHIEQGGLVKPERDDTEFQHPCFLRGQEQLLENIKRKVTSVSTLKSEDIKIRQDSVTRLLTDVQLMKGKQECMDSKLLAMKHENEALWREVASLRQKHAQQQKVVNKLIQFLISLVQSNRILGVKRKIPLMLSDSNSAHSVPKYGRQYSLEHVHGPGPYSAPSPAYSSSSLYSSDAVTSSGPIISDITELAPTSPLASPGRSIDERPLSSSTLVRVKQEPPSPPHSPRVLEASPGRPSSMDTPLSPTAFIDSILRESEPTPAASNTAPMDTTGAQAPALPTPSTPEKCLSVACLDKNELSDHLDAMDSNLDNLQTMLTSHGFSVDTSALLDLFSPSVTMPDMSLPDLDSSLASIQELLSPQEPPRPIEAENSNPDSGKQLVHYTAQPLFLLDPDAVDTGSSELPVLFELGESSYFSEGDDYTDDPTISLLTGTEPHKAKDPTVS

[18] = A549 cell cytotoxicity, dose response, cytotoxicity control, plate reader, cherry-pick, antagonist series (AID 743412); format: functional, cell-based
Paired box protein Pax-8 = Paired box protein Pax-8 (Homo sapiens, UniProt Q06710); assay: inhibitors of PAX8-driven TPO luciferase reporter, dose response, RMG-I cells, cherry-pick (AID 687027); format: functional, cell-based;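 also: luciferase reporter driven by Pax8 target thyroperoxidase promoter measured by SteadyGlo luminescence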
[19] = reduction of Shn3 3'UTR firefly luciferase signal, dose response, Schnurri-3 inhibitor project, cell-based, Clone20 osteoblasts, cherry-pick, set 2 (AID 720490); format: functional;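 also: actives lower the luminescence signal as inhibitors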
[20] = HepG2 cell cytotoxicity, dose response, cytotoxicity control, plate reader, cherry-pick, antagonist series (AID 743416); format: functional, cell-based

Chain of Nucleotide-binding oligomerization domain-containing protein 2 (Q9HC29 whole entry, the tested form may be a part): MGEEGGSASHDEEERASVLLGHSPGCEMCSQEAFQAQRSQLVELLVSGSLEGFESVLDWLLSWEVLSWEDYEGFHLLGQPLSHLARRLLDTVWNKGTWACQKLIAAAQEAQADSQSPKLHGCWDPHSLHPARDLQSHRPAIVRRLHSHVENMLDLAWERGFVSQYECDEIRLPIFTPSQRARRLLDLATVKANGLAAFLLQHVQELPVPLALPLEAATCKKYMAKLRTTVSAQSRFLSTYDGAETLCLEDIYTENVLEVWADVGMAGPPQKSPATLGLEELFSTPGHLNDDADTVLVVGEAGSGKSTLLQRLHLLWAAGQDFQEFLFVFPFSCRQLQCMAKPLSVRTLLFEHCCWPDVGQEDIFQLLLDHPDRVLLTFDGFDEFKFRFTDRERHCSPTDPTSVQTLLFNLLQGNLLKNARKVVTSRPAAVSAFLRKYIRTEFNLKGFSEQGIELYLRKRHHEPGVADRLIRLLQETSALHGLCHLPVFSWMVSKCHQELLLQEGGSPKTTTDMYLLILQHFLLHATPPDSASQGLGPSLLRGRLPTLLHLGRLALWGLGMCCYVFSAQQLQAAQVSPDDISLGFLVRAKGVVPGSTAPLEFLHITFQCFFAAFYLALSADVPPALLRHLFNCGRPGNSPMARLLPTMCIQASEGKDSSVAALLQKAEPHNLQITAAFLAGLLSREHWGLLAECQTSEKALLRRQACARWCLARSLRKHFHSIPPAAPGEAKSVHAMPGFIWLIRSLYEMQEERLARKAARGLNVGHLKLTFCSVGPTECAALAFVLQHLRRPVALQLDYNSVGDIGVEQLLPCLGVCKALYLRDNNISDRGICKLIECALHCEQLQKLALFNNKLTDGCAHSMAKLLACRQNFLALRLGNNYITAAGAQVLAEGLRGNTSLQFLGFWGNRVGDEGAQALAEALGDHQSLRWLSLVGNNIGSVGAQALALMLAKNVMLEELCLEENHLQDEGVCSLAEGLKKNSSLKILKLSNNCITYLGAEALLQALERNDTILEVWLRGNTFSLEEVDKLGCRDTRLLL
Chain of Paired box protein Pax-8 (Q06710 whole entry): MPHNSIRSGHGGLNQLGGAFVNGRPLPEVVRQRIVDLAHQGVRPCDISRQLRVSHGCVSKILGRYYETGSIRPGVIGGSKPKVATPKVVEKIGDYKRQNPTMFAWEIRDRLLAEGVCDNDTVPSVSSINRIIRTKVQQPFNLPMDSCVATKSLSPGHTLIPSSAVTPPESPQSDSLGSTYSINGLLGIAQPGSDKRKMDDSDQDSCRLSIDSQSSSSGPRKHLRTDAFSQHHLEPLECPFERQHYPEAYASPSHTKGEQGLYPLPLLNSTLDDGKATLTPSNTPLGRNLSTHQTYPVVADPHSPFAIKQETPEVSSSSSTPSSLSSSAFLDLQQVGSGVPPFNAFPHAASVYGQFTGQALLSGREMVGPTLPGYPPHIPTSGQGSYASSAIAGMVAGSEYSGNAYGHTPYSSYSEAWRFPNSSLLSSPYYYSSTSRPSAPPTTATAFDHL
Chain of Melanin-concentrating hormone receptor 1 (Q99705 whole entry): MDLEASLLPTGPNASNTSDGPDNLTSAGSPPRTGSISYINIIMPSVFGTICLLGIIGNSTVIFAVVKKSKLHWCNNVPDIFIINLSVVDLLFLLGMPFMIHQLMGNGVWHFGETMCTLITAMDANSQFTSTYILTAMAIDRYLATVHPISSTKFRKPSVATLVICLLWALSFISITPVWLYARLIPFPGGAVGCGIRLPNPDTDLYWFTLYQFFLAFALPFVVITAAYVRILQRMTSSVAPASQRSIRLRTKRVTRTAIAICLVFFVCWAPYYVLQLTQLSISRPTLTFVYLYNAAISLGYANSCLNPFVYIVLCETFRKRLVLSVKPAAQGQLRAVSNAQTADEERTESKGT

CCN(c1ccccc1)S(=O)(=O)c1ccc(Cl)c(NC(=O)c2ccc(O)nn2)c1
IC50 (cells): 32.8 µM (active)

COc1ccc(Oc2c(Cl)cnn(-c3cc(C)ccc3C)c2=O)cc1
IC50 [1]: 12.2 µM (inactive)

Cc1ccc(OCCn2c(NC(=O)c3ccco3)nc3ccccc32)cc1
EC50 [2]: 10.3 µM (active)
EC50 (HEK293 [3]): 3.15 µM (active)
EC50 [4]: > 20 µM (inactive)
EC50 [5]: 1.6 µM (active)
IC50 (HEK293 [6]): 2.41 µM (active)
EC50 [7]: 15.8 µM (active)
IC50 (HEK293 [8]): > 20 µM (inactive)
IC50 (HEK293 [9]): > 20 µM (inactive)
IC50 (HEK293 [10]): 4.87 µM (active)
EC50 (Streptococcus): 3.87 µM (active)
EC50 [11]: 13.1 µM (active)

CC(C)(C)C(=O)Nc1ccc(NC(=O)c2ccco2)nc1
IC50 [12]: > 80 µM (inactive)
AC50 [13]: 0.243 µM (active)
AC50 [14]: 0.245 µM (active)
IC50 [15]: > 39.8 µM (not active)
AC50 [16]: 1.17 µM (active)
EC50 [17]: < 0.16 µM (active)
AC50 [18]: > 52 µM (inactive)
AC50 (Paired box protein Pax-8): 1.26 µM (active)
AC50 [19]: 2.64 µM (active)
AC50 [20]: > 52 µM (inactive)

Cn1c(Sc2ccc(Cl)cc2)c(C=O)c2ccccc21
EC50 (HEK293 [3]): 1.63 µM (active)
EC50 [4]: 2.17 µM (active)
IC50 (HEK293 [6]): 1.15 µM (active)
IC50 (HEK293 [8]): > 20 µM (inactive)
IC50 (HEK293 [9]): > 20 µM (inactive)
IC50 (HEK293 [10]): 0.748 µM (active)
